From US11332459B2 (TEIJIN PHARMA LIMITED, priority 2017, dated 2022)
Structures can show the parent of a compound that is named as a salt.

Molecular target: T1, human TRPC6 (Homo sapiens, UniProt Q9Y210)
T1 construct: expressed in transfected cells
T1 sequence (Q9Y210 1-931): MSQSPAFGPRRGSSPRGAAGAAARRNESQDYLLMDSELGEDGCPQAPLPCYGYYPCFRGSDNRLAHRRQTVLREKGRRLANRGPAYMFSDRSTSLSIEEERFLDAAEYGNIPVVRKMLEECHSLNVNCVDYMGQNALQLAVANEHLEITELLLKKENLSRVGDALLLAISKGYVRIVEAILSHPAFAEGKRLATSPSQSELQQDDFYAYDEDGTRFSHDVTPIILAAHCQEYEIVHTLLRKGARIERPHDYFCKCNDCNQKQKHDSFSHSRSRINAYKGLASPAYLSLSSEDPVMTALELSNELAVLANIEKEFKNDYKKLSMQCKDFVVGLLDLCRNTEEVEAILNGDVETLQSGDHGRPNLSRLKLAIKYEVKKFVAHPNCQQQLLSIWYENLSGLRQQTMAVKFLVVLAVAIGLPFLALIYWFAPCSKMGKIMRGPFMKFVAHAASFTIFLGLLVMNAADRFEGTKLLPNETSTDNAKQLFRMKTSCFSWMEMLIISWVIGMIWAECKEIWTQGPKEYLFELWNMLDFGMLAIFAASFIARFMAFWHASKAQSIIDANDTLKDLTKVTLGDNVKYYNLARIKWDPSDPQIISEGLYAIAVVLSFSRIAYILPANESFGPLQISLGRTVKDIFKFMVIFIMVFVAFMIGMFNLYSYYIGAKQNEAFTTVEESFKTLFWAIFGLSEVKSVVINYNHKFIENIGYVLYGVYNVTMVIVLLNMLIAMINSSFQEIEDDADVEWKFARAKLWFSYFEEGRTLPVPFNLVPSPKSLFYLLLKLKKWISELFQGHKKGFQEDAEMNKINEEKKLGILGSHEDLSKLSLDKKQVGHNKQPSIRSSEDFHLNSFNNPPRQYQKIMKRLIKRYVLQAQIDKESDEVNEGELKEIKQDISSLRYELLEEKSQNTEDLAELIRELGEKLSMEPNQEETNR
Assay: TRPC6 calcium flux assay (FLIPR, OAG-stimulated calcium influx)
Format: cell-based
Conditions: HEK293 cells stably transfected with human TRPC6, read-out: hTRPC6 Potency
Description: Biological Example 1 TRPC6 Calcium Flux Assay
Potency of TRPC6 (Transient receptor potential channel family C6) inhibitors were measured by their inhibition of Calcium influx trigged by […] (1-Oleoyl-2-acetyl-sn-glycerol, Millipore Sigma, O6754) stimulation on HEK293 cells stablely transfected with human TRPC6 using a FLIPR tetra system. Cells were grown in a humidified environment at 37° C. under 5% CO2 using the growth medium with the following selective reagents (Dulbecco's Modified Eagle's Medium (DMEM) high glucose, 10% Fetal Bovine Serum, 1×PSGlu (penicillin-streptomycin glutamine), 1×NEAA (Non-essential amino acid), 1× Na Pyruvate and 200 ug/ml Hygromycin). For general passage, cells were grown to 70-90% confluency; the media was removed, and the cells were gently washed 2 times with calcium and magnesium free PBS (phosphate-buffered saline). Trypsin (3 mL) was applied for 5 minutes at 37° C. The cells were dislodged by rapping flask against base of a hand and 7 mL of growth medium was added to deactivate trypsin and re-suspend cells. The usual splitting schedule was 1:5 every 2-3 days.
Cells were plated the day before the assay, plating cell density is 1.0-1.5×10^4/25 μl/well in poly-D-lysine (PDL) coated 384-well plates using either multichannel pipettes or multidrop. These cells were first incubated with fluorescence dye at room temperature for 90-120 minutes after they were grown on PDL-coated 384-well black plates overnight (Dye loading buffer 10 ml example: 9 mL assay buffer, 1 mL, 10×PBX signal enhancer, 10 μL Calcium indicator). The cells were incubated with a dose of compounds for 25 minutes before being stimulated with TRPC6 agonist OAG. The OAG solution was prepared by adding OAG into assay buffer (Ca ringer solution base: 10 mM HEPES (4-(2-hydroxyethyl)-1-piperazine-ethanesulfonic acid), 4 mM MgCl2, 120 mM NaCl, 5 mM KCl, pH=7.2 @25° C.)+0.1% BSA+2 mM CaCl2) to the concentration of 0.2 mM/2% DMSO, which achieves a final on cell concentration of 50 uM/0.5% DMSO. 12.5 uL OAG mixture was added and the activation of the TRPC6 channel was measured by the change of intracellular Calcium levels on FLIPR terra system.
Data was acquired by measuring the fluorescent peak signal subtracted from the background during the 180 second imaging frame. Each data point is further normalized to 100% of OAG triggered signal vs. buffer. Table 16 provides the IC50 for each compound, which data is obtained by plotting peak signal over the compound dose.

Row | Structure (SMILES) | IC50 [µM]
1 | CC(c1ccc(C#N)cc1)n1c(N2CCC[C@H](N)C2)nc2ccccc21 (mixture of isomers) [Example 399, 4-(1-(2-((S)-3-aminopiperidin-1-yl)-1H-benzo[d]imidazol-1-yl)ethyl)benzonitrile] | 0.0205
2 | CS(=O)(=O)CC1CCN(C(=O)Cn2c(N3CC[C@@H](F)[C@H](N)C3)nc3cc(F)c(F)cc32)C1 (stereo partly drawn) [Example 645, 2-(2-((3R,4R)-3-amino-4-fluoropiperidin-1-yl)-5,6-difluoro-1H-benzo[d]imidazol-1-yl)-1-(3-((methylsulfonyl)methyl)pyrrolidin-1-yl)ethanone] | 2.3
3 | COc1ccc2c(c1)nc(N1CCC(F)(F)[C@H](N)C1)n2Cc1ccc(C#N)cn1 [Example 137, 6-((2-((3R)-3-amino-4,4-difluoro-1-piperidinyl)-5-methoxy-1H-benzimidazol-1-yl)methyl)-3-pyridinecarbonitrile] | 0.0362
4 | N#Cc1ccc2nc(N3CC[C@@H](F)[C@H](N)C3)n(Cc3ncc(Cl)cn3)c2c1 [Example 187, 2-((3R,4R)-3-amino-4-fluoropiperidin-1-yl)-1-((5-chloropyrimidin-2-yl)methyl)-1H-benzo[d]imidazole-6-carbonitrile] | 0.00159
5 | COc1cccc2c1nc(N1CCC(F)(F)[C@H](N)C1)n2Cc1ccc(C#N)cc1 [Example 410, (R)-4-((2-(3-amino-4,4-difluoropiperidin-1-yl)-4-methoxy-1H-benzo[d]imidazol-1-yl)methyl)benzonitrile] | 0.0105
6 | CN(CC(F)(F)F)C(=O)Cn1c(N2CC[C@H](N)C2)nc2ccc(F)cc21 [Example 489, (S)-2-(2-(3-aminopyrrolidin-1-yl)-6-fluoro-1H-benzo[d]imidazol-1-yl)-N-methyl-N-(2,2,2-trifluoroethyl)acetamide] | > 3.75
7 | N#CC1(F)CCN(C(=O)Cn2c(N3CC[C@@H](F)[C@H](N)C3)nc3cc(F)c(F)cc32)C1 (stereo partly drawn) [Example 618, 1-(2-(2-((3R,4R)-3-amino-4-fluoropiperidin-1-yl)-5,6-difluoro-1H-benzo[d]imidazol-1-yl)acetyl)-3-fluoropyrrolidine-3-carbonitrile] | 0.0483
8 | CC(N(C)C(=O)Cn1c(N2CC[C@@H](F)[C@H](N)C2)nc2cc(F)c(F)cc21)C(F)(F)F (mixture of isomers) [Example 614, 2-(2-((3R,4R)-3-amino-4-fluoropiperidin-1-yl)-5,6-difluoro-1H-benzo[d]imidazol-1-yl)-N-methyl-N-(1,1,1-trifluoropropan-2-yl)acetamide] | 0.0248
9 | N[C@@H]1CN(c2nc3cc(F)cc(F)c3n2Cc2nnc(C(F)F)s2)CC[C@H]1F [Example 598, (3R,4R)-1-(1-((5-(difluoromethyl)-1,3,4-thiadiazol-2-yl)methyl)-5,7-difluoro-1H-benzo[d]imidazol-2-yl)-4-fluoropiperidin-3-amine] | > 3.75
10 | N#Cc1ccc(Cn2c(N3CC[C@H](F)[C@H](N)C3)nc3c(Cl)cc(Cl)cc32)nc1 [Example 59, 6-((2-((3R,4S)-3-amino-4-fluoropiperidin-1-yl)-4,6-dichloro-1H-benzo[d]imidazol-1-yl)methyl)nicotinonitrile] | 0.000256
11 | COc1ccc2c(c1)nc(N1CCC[C@@H](N)C1)n2Cc1ccc(C#N)cc1 [Example 186, (R)-4-((2-(3-aminopiperidin-1-yl)-5-methoxy-1H-benzo[d]imidazol-1-yl)methyl)benzonitrile] | 0.278
12 | N#Cc1ccc(Cn2c(N3CCC[C@H](N)C3)nc3ccc(C#N)cc32)nc1 [Example 51, (S)-2-(3-aminopiperidin-1-yl)-1-((5-cyanopyridin-2-yl)methyl)-1H-benzo[d]imidazole-6-carbonitrile] | 0.00647
13 | N#Cc1ccc(Cn2c(N3C[C@@H]4C[C@]4(CN)C3)nc3ccccc32)cc1 [Example 183, 4-((2-((1S,5R)-1-(aminomethyl)-3-azabicyclo[3.1.0]hexan-3-yl)-1H-benzo[d]imidazol-1-yl)methyl)benzonitrile] | 0.655
14 | NC(=O)c1cnc(Cn2c(N3CC[C@@H](F)[C@H](N)C3)nc3ccc(C(F)(F)F)cc32)cn1 [Example 134, 5-((2-((3R,4R)-3-amino-4-fluoro-1-piperidinyl)-6-(trifluoromethyl)-1H-benzimidazol-1-yl)methyl)-2-pyrazinecarboxamide] | 0.00471
15 | CS(=O)(=O)N1CCN(C(=O)Cn2c(N3CC[C@@H](F)[C@H](N)C3)nc3cc(F)c(F)cc32)CC1 [Example 649, 2-(2-((3R,4R)-3-amino-4-fluoropiperidin-1-yl)-5,6-difluoro-1H-benzo[d]imidazol-1-yl)-1-(4-(methylsulfonyl)piperazin-1-yl)ethanone] | > 3.75
16 | N[C@@H]1CCCN(c2nc3ccccc3n2Cc2ccc(F)cc2)C1 [Example 387, (R)-1-(1-(4-fluorobenzyl)-1H-benzo[d]imidazol-2-yl)piperidin-3-amine] | 5.36
17 | COc1cc(F)cc2nc(N3CC[C@@H](F)[C@H](N)C3)n(CC(=O)N(C)CC(F)(F)F)c12 [Example 509, 2-(2-((3R,4R)-3-amino-4-fluoropiperidin-1-yl)-5-fluoro-7-methoxy-1H-benzo[d]imidazol-1-yl)-N-methyl-N-(2,2,2-trifluoroethyl)acetamide] | 0.131
18 | COc1ccc2c(c1)nc(N1CC[C@H](F)[C@H](N)C1)n2Cc1ccc(C#N)cn1 [Example 148, 6-((2-((3R,4S)-3-amino-4-fluoropiperidin-1-yl)-5-methoxy-1H-benzo[d]imidazol-1-yl)methyl)nicotinonitrile hydrochloride] | 0.0118
19 | N#Cc1ccc(Cn2c(N3CCC[C@H](N)C3)nc3ccccc32)cn1 [Example 210, (S)-5-((2-(3-aminopiperidin-1-yl)-1H-benzo[d]imidazol-1-yl)methyl)picolinonitrile] | 0.0691
20 | N[C@@H]1CN(c2nc3cc(F)c(F)cc3n2CC(=O)N2CCC3CC32)CC[C@H]1F (mixture of isomers) [Example 609, 2-(2-((3R,4R)-3-amino-4-fluoropiperidin-1-yl)-5,6-difluoro-1H-benzo[d]imidazol-1-yl)-1-(2-azabicyclo[3.1.0]hexan-2-yl)ethanone] | 0.0203
21 | N[C@@H]1CN(c2nc3ccccc3n2Cc2ccc(Cl)cn2)CC[C@@H]1F [Example 86, (3R,4S)-1-(1-((5-chloropyridin-2-yl)methyl)-1H-benzo[d]imidazol-2-yl)-4-fluoropiperidin-3-amine hydrochloride] | 0.00137
22 | CN[C@@H]1CN(c2nc3cc(C#N)ccc3n2Cc2ncc(Cl)cn2)CC[C@H]1F [Example 284, 1-((5-chloro-2-pyrimidinyl)methyl)-2-((3R,4R)-4-fluoro-3-(methylamino)-1-piperidinyl)-1H-benzimidazole-5-carbonitrile] | 0.223
23 | N[C@H]1CCCN(c2nc3ccccc3n2Cc2ccc(Cl)cn2)C1 [Example 209, (S)-1-(1-((5-chloropyridin-2-yl)methyl)-1H-benzo[d]imidazol-2-yl)piperidin-3-amine] | 0.00387
24 | CN(C)C(=O)Cn1c(N2CC[C@@H](F)[C@H](N)C2)nc2cc(F)ccc21 [Example 576, 2-(2-((3R,4R)-3-amino-4-fluoropiperidin-1-yl)-5-fluoro-1H-benzo[d]imidazol-1-yl)-N,N-dimethylacetamide] | 0.169
